According to patent US20230089867A1, “CYCLIC PENTAMER COMPOUNDS AS PROPROTEIN CONVERTASE SUBTILISIN/KEXIN TYPE 9 (PCSK9) INHIBITORS FOR THE TREATMENT OF METABOLIC DISORDER” (Novartis AG, priority 2018, published 2023):
pIC50: −log10 of the molar value.

Biological target: human PCSK9 (Homo sapiens, UniProt Q8NBP7)
Assay: PCSK9 ligand binding TR-FRET assay (interference with binding of human PCSK9 to human LDLR)
Conditions: for Max % inhibition: PCSK9 FRET assay, efficacy (Amax), 100% = 1 uM unlabeled human PCSK9, 0% = DMSO; for pIC50: TR-FRET, human PCSK9 Alexa Fluor 647 / human LDLR extracellular domain-Europium Kryptate, read-out: PCSK9 FRET Assay IC50
Method in brief: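 Threefold compound dilutions were pre-incubated 30 min with PCSK9, after which 4 nM Europium Kryptate-tagged human LDLR ectodomain was added for a further 2 h.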

Sequence of human PCSK9 (Q8NBP7 153-692): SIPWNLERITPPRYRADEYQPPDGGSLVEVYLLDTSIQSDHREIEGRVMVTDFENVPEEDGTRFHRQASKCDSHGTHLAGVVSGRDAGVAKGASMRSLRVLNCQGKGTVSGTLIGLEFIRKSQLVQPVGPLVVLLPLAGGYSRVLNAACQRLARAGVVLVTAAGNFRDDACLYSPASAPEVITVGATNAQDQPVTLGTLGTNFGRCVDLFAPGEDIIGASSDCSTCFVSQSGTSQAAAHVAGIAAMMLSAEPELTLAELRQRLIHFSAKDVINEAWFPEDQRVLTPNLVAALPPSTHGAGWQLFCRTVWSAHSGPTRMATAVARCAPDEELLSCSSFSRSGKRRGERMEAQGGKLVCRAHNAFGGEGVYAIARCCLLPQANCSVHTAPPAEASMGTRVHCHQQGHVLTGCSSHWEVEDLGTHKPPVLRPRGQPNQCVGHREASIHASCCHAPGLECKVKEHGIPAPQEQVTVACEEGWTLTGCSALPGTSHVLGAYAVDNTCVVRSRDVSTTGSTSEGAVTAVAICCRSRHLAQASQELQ
Sequence of human PCSK9 (Q8NBP7 31-152 partner limits assumed): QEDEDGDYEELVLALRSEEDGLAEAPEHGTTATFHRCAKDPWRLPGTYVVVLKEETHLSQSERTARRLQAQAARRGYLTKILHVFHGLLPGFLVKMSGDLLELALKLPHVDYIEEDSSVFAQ

Compound | Max % inhibition | pIC50
COC[C@@H]1NC(=O)[C@H](C)N(Cc2ccc(Cl)cc2Oc2ccc(-c3cnc(CN(C)C)n3C)cn2)C(=O)C[C@@H](Cc2ccccc2)C(=O)N(C)[C@H]2CCCC[C@@H]2NC(=O)C[C@H](Cc2ccc(Cl)cc2)N(C)C1=O [Compound 273, (4S,7S,10S,14R,16aS,20aS)-14-benzyl-11-(4-chloro-2-((5-(2-((dimethylamino)methyl)-1-methyl-1H-imidazol-5-yl)pyridin-2-yl)oxy)benzyl)-4-(4-chlorobenzyl)-7-(methoxymethyl)-5,10,16-trimethylhexadecahydrobenzo[l][1,4,7,11,14]pentaazacyclooctadecine-2,6,9,12,15(3H)-pentaone] | 105.53% | 8.52
C=CC[C@@H]1CC(=O)N(Cc2ccc(Cl)cc2Oc2ccc(-c3cnc(CN(C)C)n3C)cc2)[C@@H](CCCN2CCOCC2)C(=O)N[C@@H](COC)C(=O)N(C)[C@@H](Cc2ccc(Cl)cc2)CC(=O)N[C@H]2CCCC[C@@H]2N(C)C1=O [Compound 277, (4S,7S,10S,14R,16aS,20aS)-14-allyl-11-(4-chloro-2-(4-(2-((dimethylamino)methyl)-1-methyl-1H-imidazol-5-yl)phenoxy)benzyl)-4-(4-chlorobenzyl)-7-(methoxymethyl)-5,16-dimethyl-10-(3-morpholinopropyl)hexadecahydrobenzo[l][1,4,7,11,14]pentaazacyclooctadecine-2,6,9,12,15(3H)-pentaone] | 83.22% | 8.60
Cc1c(CN(C)C)ncn1-c1ccc(Oc2cc(Cl)ccc2CN2C(=O)C[C@@H](Cc3ccccc3)C(=O)N(C)[C@H]3CCCC[C@@H]3NC(=O)C[C@H](Cc3ccc(Cl)cc3)N(C)C(=O)[C@H](CO)NC(=O)[C@@H]2C)cc1 [Compound 278, (4S,7S,10S,14R,16aS,20aS)-14-benzyl-11-(4-chloro-2-(4-(4-((dimethylamino)methyl)-5-methyl-1H-imidazol-1-yl)phenoxy)benzyl)-4-(4-chlorobenzyl)-7-(hydroxymethyl)-5,10,16-trimethylhexadecahydrobenzo[l][1,4,7,11,14]pentaazacyclooctadecine-2,6,9,12,15(3H)-pentaone] | 107.17% | 8.89

Other lines, results leading:

Max % inhibition | pIC50 | Compound
102.47% | 9.10 | COC[C@@H]1NC(=O)[C@H](C)N(Cc2ccc(Cl)cc2Oc2ccc(-c3cnc(CN(C)C)n3C)cc2)C(=O)CC(Cn2ccccc2=O)C(=O)N(C)[C@H]2CCCC[C@@H]2NC(=O)C[C@H](Cc2ccc(Cl)cc2)N(C)C1=O (stereo partly drawn) [Compound 275, (4S,7S,10S,16aS,20aS)-11-(4-chloro-2-(4-(2-((dimethylamino)methyl)-1-methyl-1H-imidazol-5-yl)phenoxy)benzyl)-4-(4-chlorobenzyl)-7-(methoxymethyl)-5,10,16-trimethyl-14-((2-oxopyridin-1(2H)-yl)methyl)hexadecahydrobenzo[l][1,4,7,11,14]pentaazacyclooctadecine-2,6,9,12,15(3H)-pentaone]
101.53% | 7.79 | COC[C@@H]1NC(=O)[C@H](C)N(Cc2ccc(Cl)cc2Oc2ccc(-c3cnc(CN(C)C)n3C)cc2)C(=O)CC(Cn2ccccc2=O)C(=O)N(C)[C@H]2CCCC[C@@H]2NC(=O)C[C@H](Cc2ccc(Cl)cc2)N(C)C1=O (stereo partly drawn) [Compound 276, (4S,7S,10S,16aS,20aS)-11-(4-chloro-2-(4-(2-((dimethylamino)methyl)-1-methyl-1H-imidazol-5-yl)phenoxy)benzyl)-4-(4-chlorobenzyl)-7-(methoxymethyl)-5,10,16-trimethyl-14-((2-oxopyridin-1(2H)-yl)methyl)hexadecahydrobenzo[l][1,4,7,11,14]pentaazacyclooctadecine-2,6,9,12,15(3H)-pentaone]
